Tested on: 435261-313-R-J1-PDC complex spheroid viability
Experiment: Anticancer human tumor 435261-313-R-J1-PDC patient-derived colon adenocarcinoma cell line growth inhibition [GQUAD]
Conditions: for IC50: curve of first compound; for viability, T/C: stronger effect = lower value
Method in brief: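 Tumor cells were grown as complex spheroids with HUVEC endothelial cells and mesenchymal stem cells as stroma. G-quadruplex stabilizers were combined with targeted agents over half-log dilutions from near the clinical Cmax, or from 10 microM.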

[1] = second compound 0.0316 µM, first compound 0.0316 µM
[2] = second compound 0.0316 µM, first compound 0.1 µM
[3] = second compound 0.0316 µM, first compound 0.316 µM
[4] = second compound 0.0316 µM, first compound 1 µM
[5] = second compound 0.0316 µM, first compound 3.16 µM
[6] = second compound 0.0316 µM, first compound 10 µM
[7] = second compound 0.1 µM, first compound 0.0316 µM
[8] = second compound 0.1 µM, first compound 0.1 µM
[9] = second compound 0.1 µM, first compound 0.316 µM
[10] = second compound 0.1 µM, first compound 1 µM
[11] = second compound 0.1 µM, first compound 3.16 µM
[12] = second compound 0.1 µM, first compound 10 µM
[13] = second compound 0.316 µM, first compound 0.0316 µM
[14] = second compound 0.316 µM, first compound 0.1 µM
[15] = second compound 0.316 µM, first compound 0.316 µM
[16] = second compound 0.316 µM, first compound 1 µM
[17] = second compound 0.316 µM, first compound 3.16 µM
[18] = second compound 0.316 µM, first compound 10 µM
[19] = second compound 1 µM, first compound 0.0316 µM
[20] = second compound 1 µM, first compound 0.1 µM
[21] = second compound 1 µM, first compound 0.316 µM
[22] = second compound 1 µM, first compound 1 µM
[23] = second compound 1 µM, first compound 3.16 µM
[24] = second compound 1 µM, first compound 10 µM
[25] = second compound 3.16 µM, first compound 0.0316 µM
[26] = second compound 3.16 µM, first compound 0.1 µM
[27] = second compound 3.16 µM, first compound 0.316 µM
[28] = second compound 3.16 µM, first compound 1 µM
[29] = second compound 3.16 µM, first compound 3.16 µM
[30] = second compound 3.16 µM, first compound 10 µM
[31] = second compound 10 µM, first compound 0.0316 µM
[32] = second compound 10 µM, first compound 0.1 µM
[33] = second compound 10 µM, first compound 0.316 µM
[34] = second compound 10 µM, first compound 1 µM
[35] = second compound 10 µM, first compound 3.16 µM
[36] = second compound 10 µM, first compound 10 µM
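Note: spheroids exposed to the agents for seven days before readout.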
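Throughout, for viability, T/C: percent of vehicle control viability with DMSO wells as 100%.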

Question: For C=CCn1c(=O)c2cnc(Nc3ccc(N4CCN(C)CC4)cc3)nc2n1-c1cccc(C(C)(C)O)n1 + Cc1cnc(CNC(=O)c2c(=O)c3ccc(N4CCCN(C)CC4)nc3n3c2sc2ccccc23)cn1, which IC50 (second compound 0.0316 µM) is on record?
Answer: > 10000 nM

Question: And the IC50 (second compound 0.1 µM)?
Answer: 266 nM

Question: What about the IC50 (second compound 0.316 µM) of the same compound?
Answer: 2250 nM

Question: What about the IC50 (second compound 1 µM) of the same compound?
Answer: < 31.6 nM

Question: And the IC50 (second compound 3.16 µM)?
Answer: < 31.6 nM

Question: And the IC50 (second compound 10 µM)?
Answer: < 31.6 nM

Question: And the viability, T/C [1]?
Answer: 67.6%

Question: What about the viability, T/C [2] of the same compound?
Answer: 59.2%

Question: What about the viability, T/C [3] of the same compound?
Answer: 59.4%

Question: What about the viability, T/C [4] of the same compound?
Answer: 57%

Question: And the viability, T/C [5]?
Answer: 52.7%

Question: What about the viability, T/C [6] of the same compound?
Answer: 51.3%

Question: And the viability, T/C [7]?
Answer: 61.3%

Question: What about the viability, T/C [8] of the same compound?
Answer: 56.1%

Question: And the viability, T/C [9]?
Answer: 44.4%

Question: And the viability, T/C [10]?
Answer: 47.8%

Question: What about the viability, T/C [11] of the same compound?
Answer: 54.4%

Question: What about the viability, T/C [12] of the same compound?
Answer: 42.4%

Question: What about the viability, T/C [13] of the same compound?
Answer: 54%

Question: What about the viability, T/C [14] of the same compound?
Answer: 59.2%

Question: And the viability, T/C [15]?
Answer: 49.9%

Question: And the viability, T/C [16]?
Answer: 52.9%

Question: And the viability, T/C [17]?
Answer: 49.6%

Question: What about the viability, T/C [18] of the same compound?
Answer: 36.8%

Question: What about the viability, T/C [19] of the same compound?
Answer: 34.9%

Question: What about the viability, T/C [20] of the same compound?
Answer: 39.6%

Question: What about the viability, T/C [21] of the same compound?
Answer: 36.2%

Question: And the viability, T/C [22]?
Answer: 39.1%

Question: And the viability, T/C [23]?
Answer: 41.2%

Question: What about the viability, T/C [24] of the same compound?
Answer: 30.5%

Question: What about the viability, T/C [25] of the same compound?
Answer: 14%

Question: And the viability, T/C [26]?
Answer: 4.69%

Question: What about the viability, T/C [27] of the same compound?
Answer: 8.48%

Question: What about the viability, T/C [28] of the same compound?
Answer: 4.99%

Question: And the viability, T/C [29]?
Answer: 5.92%

Question: And the viability, T/C [30]?
Answer: 0.17%

Question: What about the viability, T/C [31] of the same compound?
Answer: 0.17%

Question: And the viability, T/C [32]?
Answer: 0.17%

Question: What about the viability, T/C [33] of the same compound?
Answer: 0.19%

Question: What about the viability, T/C [34] of the same compound?
Answer: 0.16%

Question: What about the viability, T/C [35] of the same compound?
Answer: 0.19%

Question: And the viability, T/C [36]?
Answer: 0.15%

Question: How did the IC50 (second compound 0.0316 µM) turn out when CC(=O)O[C@H]1C(=O)[C@@]2(C)[C@H]([C@H](OC(=O)c3ccccc3)[C@]3(O)C[C@H](OC(=O)[C@H](O)[C@@H](NC(=O)c4ccccc4)c4ccccc4)C(C)=C1C3(C)C)[C@]1(OC(C)=O)CO[C@@H]1C[C@@H]2O + Cc1cnc(CNC(=O)c2c(=O)c3ccc(N4CCCN(C)CC4)nc3n3c2sc2ccccc23)cn1 was run?
Answer: 825 nM

Question: And the IC50 (second compound 0.1 µM)?
Answer: > 10000 nM

Question: And the IC50 (second compound 0.316 µM)?
Answer: 5200 nM

Question: And the IC50 (second compound 1 µM)?
Answer: < 31.6 nM

Question: What about the IC50 (second compound 3.16 µM) of the same compound?
Answer: < 31.6 nM

Question: What about the IC50 (second compound 10 µM) of the same compound?
Answer: < 31.6 nM

Question: And the viability, T/C [1]?
Answer: 66.7%

Question: What about the viability, T/C [2] of the same compound?
Answer: 58.1%

Question: What about the viability, T/C [3] of the same compound?
Answer: 56.9%

Question: What about the viability, T/C [4] of the same compound?
Answer: 40.8%

Question: What about the viability, T/C [5] of the same compound?
Answer: 54.3%

Question: What about the viability, T/C [6] of the same compound?
Answer: 48.4%

Question: And the viability, T/C [7]?
Answer: 54.5%

Question: And the viability, T/C [8]?
Answer: 54%

Question: And the viability, T/C [9]?
Answer: 51.5%

Question: And the viability, T/C [10]?
Answer: 45.1%

Question: What about the viability, T/C [11] of the same compound?
Answer: 57.3%

Question: What about the viability, T/C [12] of the same compound?
Answer: 53.6%

Question: And the viability, T/C [13]?
Answer: 56.8%

Question: And the viability, T/C [14]?
Answer: 55.1%

Question: What about the viability, T/C [15] of the same compound?
Answer: 52.7%

Question: And the viability, T/C [16]?
Answer: 52.9%

Question: What about the viability, T/C [17] of the same compound?
Answer: 53.4%

Question: And the viability, T/C [18]?
Answer: 46.8%

Question: What about the viability, T/C [19] of the same compound?
Answer: 40.3%

Question: What about the viability, T/C [20] of the same compound?
Answer: 41.5%

Question: What about the viability, T/C [21] of the same compound?
Answer: 42.3%

Question: What about the viability, T/C [22] of the same compound?
Answer: 42.9%

Question: And the viability, T/C [23]?
Answer: 45.6%

Question: And the viability, T/C [24]?
Answer: 34%

Question: What about the viability, T/C [25] of the same compound?
Answer: 10.4%

Question: What about the viability, T/C [26] of the same compound?
Answer: 4.44%

Question: And the viability, T/C [27]?
Answer: 6.35%

Question: What about the viability, T/C [28] of the same compound?
Answer: 12.5%

Question: What about the viability, T/C [29] of the same compound?
Answer: 11.3%

Question: And the viability, T/C [30]?
Answer: 7.23%

Question: What about the viability, T/C [31] of the same compound?
Answer: 0.12%

Question: And the viability, T/C [32]?
Answer: 0.16%

Question: What about the viability, T/C [33] of the same compound?
Answer: 0.15%

Question: And the viability, T/C [34]?
Answer: 0.17%

Question: And the viability, T/C [35]?
Answer: 0.2%

Question: And the viability, T/C [36]?
Answer: 0.16%

Question: COc1ncnc(C2CC2)c1-c1ncc2cnn(Cc3ccc(-c4nc(C(F)(F)F)cn4C(C)C)cc3)c2n1 + Cc1cnc(CNC(=O)c2c(=O)c3ccc(N4CCCN(C)CC4)nc3n3c2sc2ccccc23)cn1 was tested. Which IC50 (second compound 0.0316 µM) did it give?
Answer: > 10000 nM

Question: What about the IC50 (second compound 0.1 µM) of the same compound?
Answer: > 10000 nM

Question: And the IC50 (second compound 0.316 µM)?
Answer: < 31.6 nM

Question: And the IC50 (second compound 1 µM)?
Answer: < 31.6 nM

Question: And the IC50 (second compound 3.16 µM)?
Answer: < 31.6 nM

Question: What about the IC50 (second compound 10 µM) of the same compound?
Answer: < 31.6 nM

Question: What about the viability, T/C [1] of the same compound?
Answer: 63.8%

Question: What about the viability, T/C [2] of the same compound?
Answer: 55.6%

Question: And the viability, T/C [3]?
Answer: 61.9%

Question: And the viability, T/C [4]?
Answer: 55.2%

Question: What about the viability, T/C [5] of the same compound?
Answer: 65.9%

Question: What about the viability, T/C [6] of the same compound?
Answer: 55.6%

Question: What about the viability, T/C [7] of the same compound?
Answer: 65.5%

Question: What about the viability, T/C [8] of the same compound?
Answer: 59.7%

Question: What about the viability, T/C [9] of the same compound?
Answer: 51.1%

Question: What about the viability, T/C [10] of the same compound?
Answer: 53.5%

Question: What about the viability, T/C [11] of the same compound?
Answer: 61.9%

Question: What about the viability, T/C [12] of the same compound?
Answer: 53.8%

Question: What about the viability, T/C [13] of the same compound?
Answer: 48.4%

Question: And the viability, T/C [14]?
Answer: 53.7%

Question: And the viability, T/C [15]?
Answer: 52.4%

Question: And the viability, T/C [16]?
Answer: 48.5%

Question: And the viability, T/C [17]?
Answer: 55.1%

Question: What about the viability, T/C [18] of the same compound?
Answer: 54.3%

Question: What about the viability, T/C [19] of the same compound?
Answer: 32.6%

Question: What about the viability, T/C [20] of the same compound?
Answer: 40.8%

Question: And the viability, T/C [21]?
Answer: 40.7%

Question: And the viability, T/C [22]?
Answer: 31.8%

Question: What about the viability, T/C [23] of the same compound?
Answer: 42.1%

Question: What about the viability, T/C [24] of the same compound?
Answer: 37.2%

Question: And the viability, T/C [25]?
Answer: 17.9%

Question: And the viability, T/C [26]?
Answer: 10.5%

Question: What about the viability, T/C [27] of the same compound?
Answer: 17.6%

Question: And the viability, T/C [28]?
Answer: 8.94%

Question: What about the viability, T/C [29] of the same compound?
Answer: 15.1%

Question: And the viability, T/C [30]?
Answer: 17.2%

Question: What about the viability, T/C [31] of the same compound?
Answer: 0.18%

Question: And the viability, T/C [32]?
Answer: 0.17%

Question: And the viability, T/C [33]?
Answer: 0.23%

Question: And the viability, T/C [34]?
Answer: 0.19%

Question: And the viability, T/C [35]?
Answer: 0.2%

Question: What about the viability, T/C [36] of the same compound?
Answer: 0.18%
